The target in one data set is LRRK2 (Homo sapiens, UniProt Q5S007). The experiment in a line: Inhibition of recombinant human GST-tagged LRRK2 (970 to 2527 residues) expressed in baculovirus expression system using LRRKtide as substrate at 0.1 uM incubated for 60 mins by Adapta assay relative to control. Particulars: probe LRRKtide.
The target in data set [1] is T1, Inhibitor of nuclear factor kappa-B kinase subunit epsilon (Homo sapiens) (UniProt Q14164).
T1 sequence (whole entry): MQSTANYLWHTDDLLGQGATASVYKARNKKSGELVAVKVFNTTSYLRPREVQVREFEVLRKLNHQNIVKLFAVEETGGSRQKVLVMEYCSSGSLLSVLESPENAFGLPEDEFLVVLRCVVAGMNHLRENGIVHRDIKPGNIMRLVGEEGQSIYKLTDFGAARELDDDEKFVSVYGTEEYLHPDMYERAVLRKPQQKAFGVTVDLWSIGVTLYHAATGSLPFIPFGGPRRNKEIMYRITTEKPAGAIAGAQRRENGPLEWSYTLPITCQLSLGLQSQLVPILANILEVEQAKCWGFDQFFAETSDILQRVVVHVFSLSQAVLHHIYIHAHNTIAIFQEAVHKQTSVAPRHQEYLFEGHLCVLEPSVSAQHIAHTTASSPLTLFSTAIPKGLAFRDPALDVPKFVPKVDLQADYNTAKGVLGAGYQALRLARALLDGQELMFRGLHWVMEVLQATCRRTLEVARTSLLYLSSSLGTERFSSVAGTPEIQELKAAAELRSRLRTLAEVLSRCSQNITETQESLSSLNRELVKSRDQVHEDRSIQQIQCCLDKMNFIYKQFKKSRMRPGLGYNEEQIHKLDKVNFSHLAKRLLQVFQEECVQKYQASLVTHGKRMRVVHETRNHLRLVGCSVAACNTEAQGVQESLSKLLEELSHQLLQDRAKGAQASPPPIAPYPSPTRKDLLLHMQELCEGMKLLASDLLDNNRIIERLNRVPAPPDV
The experiment in a line: Inhibition of recombinant human GST-tagged full length IKKepsilon expressed in baculovirus expression system using Ser/Thr 11 as substrate at 0.1 uM incubated for 60 mins by Z'-lyte assay relative to control.

Data set [2] addresses cAMP-dependent protein kinase catalytic subunit alpha (Homo sapiens) (UniProt P17612). Briefly: Inhibition of recombinant human His-tagged PKA (1 to 351 residues) expressed in Escherichia coli expression system using Ser/Thr 01 as substrate at 0.1 uM incubated for 60 mins by Z'-lyte assay relative to control.
Data set [3] deals with Serine/threonine-protein kinase pim-1 (Homo sapiens) (UniProt P11309). Briefly: Inhibition of recombinant human His-tagged full length PIM1 expressed in baculovirus expression system using Ser/Thr 07 as substrate at 0.1 uM incubated for 60 mins by Z'-lyte assay relative to control.
Serine/threonine-protein kinase pim-1 (Homo sapiens), sequence (P11309 whole entry, looked up): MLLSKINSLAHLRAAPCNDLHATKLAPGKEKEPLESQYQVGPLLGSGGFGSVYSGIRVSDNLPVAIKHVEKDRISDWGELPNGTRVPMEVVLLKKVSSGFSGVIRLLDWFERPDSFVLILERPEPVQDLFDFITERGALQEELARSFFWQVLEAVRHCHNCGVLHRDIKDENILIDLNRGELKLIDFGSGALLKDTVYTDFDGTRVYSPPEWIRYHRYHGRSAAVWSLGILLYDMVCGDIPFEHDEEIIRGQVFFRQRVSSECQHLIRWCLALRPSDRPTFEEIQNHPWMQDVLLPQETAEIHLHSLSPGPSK
Data set [4] deals with Mitogen-activated protein kinase 8 (Homo sapiens) (UniProt P45983). Briefly: Inhibition of recombinant human His-tagged full length JNK1alpha1 expressed in baculovirus expression system using Ser/Thr 04 as substrate at 0.1 uM incubated for 60 mins by Z'-lyte assay relative to control.
Mitogen-activated protein kinase 8 (Homo sapiens), sequence (P45983 whole entry): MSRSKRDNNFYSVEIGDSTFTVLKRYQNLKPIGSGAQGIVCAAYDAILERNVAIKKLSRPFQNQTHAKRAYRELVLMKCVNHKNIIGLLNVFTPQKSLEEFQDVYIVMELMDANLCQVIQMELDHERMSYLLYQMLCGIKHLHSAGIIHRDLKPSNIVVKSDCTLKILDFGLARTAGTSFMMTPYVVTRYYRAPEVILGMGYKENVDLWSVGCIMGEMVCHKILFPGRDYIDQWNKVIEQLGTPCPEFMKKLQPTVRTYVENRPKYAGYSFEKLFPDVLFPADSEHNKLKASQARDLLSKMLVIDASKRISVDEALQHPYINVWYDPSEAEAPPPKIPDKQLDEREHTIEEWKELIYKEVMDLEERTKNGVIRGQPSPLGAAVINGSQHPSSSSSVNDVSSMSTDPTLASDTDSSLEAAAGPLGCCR
Data set [5] can be described thus: Metabolic stability in human liver microsomes assessed as intrinsic clearance at 1 uM measured upto 60 mins by LC-MS/MS analysis. The format is ADME, Microsome. As to conditions: read-out: CLH. (Liver microsomes are vesicles of endoplasmic reticulum, rich in cytochrome P450 enzymes.)
Data set [6] deals with Tyrosine-protein kinase ABL1 (Homo sapiens) (UniProt P00519). The experiment in a line: Inhibition of recombinant human His-tagged full length Abl expressed in baculovirus expression system using Tyr 02 as substrate at 0.1 uM incubated for 60 mins by Z'-Lyte assay relative to control.
Tyrosine-protein kinase ABL1 (Homo sapiens), sequence (P00519 whole entry, the tested form may be a part): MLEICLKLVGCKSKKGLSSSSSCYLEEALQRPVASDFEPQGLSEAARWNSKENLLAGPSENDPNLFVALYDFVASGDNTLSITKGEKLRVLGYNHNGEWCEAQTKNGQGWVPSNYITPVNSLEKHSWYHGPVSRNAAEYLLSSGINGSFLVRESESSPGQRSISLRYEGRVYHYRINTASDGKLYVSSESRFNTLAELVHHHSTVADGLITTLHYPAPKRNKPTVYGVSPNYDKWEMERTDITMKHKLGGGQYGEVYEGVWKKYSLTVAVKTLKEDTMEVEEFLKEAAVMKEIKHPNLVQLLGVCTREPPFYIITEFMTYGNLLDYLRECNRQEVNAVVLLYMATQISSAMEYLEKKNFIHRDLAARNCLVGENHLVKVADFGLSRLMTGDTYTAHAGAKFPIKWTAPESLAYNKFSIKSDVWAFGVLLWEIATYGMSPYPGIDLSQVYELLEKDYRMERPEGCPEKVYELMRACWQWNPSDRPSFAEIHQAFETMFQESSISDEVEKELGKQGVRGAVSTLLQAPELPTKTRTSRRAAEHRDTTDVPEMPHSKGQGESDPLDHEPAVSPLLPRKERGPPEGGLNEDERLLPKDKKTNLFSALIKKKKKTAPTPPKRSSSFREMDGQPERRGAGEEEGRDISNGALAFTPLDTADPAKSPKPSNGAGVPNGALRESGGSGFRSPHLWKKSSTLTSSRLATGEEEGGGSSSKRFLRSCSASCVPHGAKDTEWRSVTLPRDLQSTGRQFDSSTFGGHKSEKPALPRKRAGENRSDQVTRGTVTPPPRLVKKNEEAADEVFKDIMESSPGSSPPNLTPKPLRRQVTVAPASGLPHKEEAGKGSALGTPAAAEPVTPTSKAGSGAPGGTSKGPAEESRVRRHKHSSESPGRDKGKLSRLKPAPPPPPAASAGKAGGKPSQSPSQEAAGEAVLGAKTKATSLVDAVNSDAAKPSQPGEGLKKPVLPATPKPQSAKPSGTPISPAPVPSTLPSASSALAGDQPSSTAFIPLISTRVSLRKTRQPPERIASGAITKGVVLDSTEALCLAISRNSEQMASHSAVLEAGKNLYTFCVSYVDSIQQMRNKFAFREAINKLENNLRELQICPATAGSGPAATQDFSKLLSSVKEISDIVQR
For data set [7], the target named is Receptor tyrosine-protein kinase erbB-2 (Homo sapiens) (UniProt P04626). The experiment in a line: Inhibition of recombinant human His-tagged ERBB2 (676 to 1255 residues) expressed in baculovirus expression system using Tyr 06 as substrate at 0.1 uM incubated for 60 mins by Z'-Lyte assay relative to control.
Receptor tyrosine-protein kinase erbB-2 (Homo sapiens), sequence (P04626 whole entry, the tested form may be a part): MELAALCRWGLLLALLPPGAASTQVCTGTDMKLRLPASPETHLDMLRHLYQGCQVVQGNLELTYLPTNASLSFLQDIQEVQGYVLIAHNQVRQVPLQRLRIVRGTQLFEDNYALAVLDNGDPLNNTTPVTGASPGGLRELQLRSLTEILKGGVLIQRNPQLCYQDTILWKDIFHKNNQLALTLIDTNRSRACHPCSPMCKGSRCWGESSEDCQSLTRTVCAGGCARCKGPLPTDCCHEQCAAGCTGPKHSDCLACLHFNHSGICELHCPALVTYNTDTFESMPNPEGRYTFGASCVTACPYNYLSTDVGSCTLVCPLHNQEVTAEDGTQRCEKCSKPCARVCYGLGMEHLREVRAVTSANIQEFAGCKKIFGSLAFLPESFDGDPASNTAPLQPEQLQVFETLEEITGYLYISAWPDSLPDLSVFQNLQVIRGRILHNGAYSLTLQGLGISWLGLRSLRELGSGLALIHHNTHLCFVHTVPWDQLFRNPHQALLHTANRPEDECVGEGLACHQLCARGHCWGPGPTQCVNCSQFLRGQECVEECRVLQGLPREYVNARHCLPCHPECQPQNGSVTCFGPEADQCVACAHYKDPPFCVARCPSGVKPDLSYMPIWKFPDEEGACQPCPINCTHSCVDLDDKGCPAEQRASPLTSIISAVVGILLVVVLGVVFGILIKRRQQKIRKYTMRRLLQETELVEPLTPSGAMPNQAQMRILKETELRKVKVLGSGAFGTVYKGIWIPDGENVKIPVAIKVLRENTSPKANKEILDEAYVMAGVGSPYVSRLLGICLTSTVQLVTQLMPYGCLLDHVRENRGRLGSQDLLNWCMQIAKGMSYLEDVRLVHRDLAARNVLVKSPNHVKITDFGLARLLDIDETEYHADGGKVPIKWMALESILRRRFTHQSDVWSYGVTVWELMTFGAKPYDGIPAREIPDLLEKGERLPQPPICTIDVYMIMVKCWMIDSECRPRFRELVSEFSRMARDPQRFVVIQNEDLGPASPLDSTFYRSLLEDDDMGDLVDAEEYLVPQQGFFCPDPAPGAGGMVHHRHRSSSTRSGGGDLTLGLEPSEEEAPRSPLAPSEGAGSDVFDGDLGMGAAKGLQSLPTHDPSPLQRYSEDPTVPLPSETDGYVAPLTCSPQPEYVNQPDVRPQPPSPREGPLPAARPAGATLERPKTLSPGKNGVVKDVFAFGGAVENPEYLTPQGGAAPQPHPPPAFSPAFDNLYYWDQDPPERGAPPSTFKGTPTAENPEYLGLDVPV
Data set [8] addresses T2, Mitogen-activated protein kinase 12 (Homo sapiens) (UniProt P53778).
T2 sequence (whole entry): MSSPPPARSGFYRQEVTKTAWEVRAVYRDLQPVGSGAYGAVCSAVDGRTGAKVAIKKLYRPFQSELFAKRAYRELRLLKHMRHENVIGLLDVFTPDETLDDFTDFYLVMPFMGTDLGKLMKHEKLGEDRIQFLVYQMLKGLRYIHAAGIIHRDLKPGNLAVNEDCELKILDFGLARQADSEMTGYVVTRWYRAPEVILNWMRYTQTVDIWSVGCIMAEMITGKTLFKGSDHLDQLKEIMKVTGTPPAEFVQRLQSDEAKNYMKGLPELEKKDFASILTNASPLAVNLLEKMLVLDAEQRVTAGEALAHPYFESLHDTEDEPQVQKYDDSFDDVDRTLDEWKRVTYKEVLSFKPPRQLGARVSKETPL
Briefly: Inhibition of recombinant human His-tagged full length p38 gamma expressed in baculovirus expression system using Ser/Thr 03 as substrate at 0.1 uM incubated for 60 mins by Z'-Lyte assay relative to control.

For data set [9], the target named is Protein kinase C alpha type (Homo sapiens) (UniProt P17252). The experiment in a line: Inhibition of recombinant human His-tagged full length PKCalpha expressed in Escherichia coli expression system using Ser/Thr 07 as substrate at 0.1 uM incubated for 60 mins by Z'-lyte assay relative to control.
Data set [10] has as its target High affinity nerve growth factor receptor (Homo sapiens) (UniProt P04629). The experiment in a line: Inhibition of recombinant human His-tagged TRKA (441 to 796 residues) expressed in baculovirus expression system using Tyr 01 as substrate at 0.1 uM incubated for 60 mins by Z'-Lyte assay relative to control.
In data set [11] the target is Tyrosine-protein kinase Fyn (Homo sapiens) (UniProt P06241). Briefly: Inhibition of recombinant human C-terminal His-tagged full length FYN expressed in baculovirus expression system using Tyr 02 as substrate at 0.1 uM incubated for 60 mins by Z'-Lyte assay relative to control.
Tyrosine-protein kinase Fyn (Homo sapiens), sequence (P06241 2-537 limits assumed): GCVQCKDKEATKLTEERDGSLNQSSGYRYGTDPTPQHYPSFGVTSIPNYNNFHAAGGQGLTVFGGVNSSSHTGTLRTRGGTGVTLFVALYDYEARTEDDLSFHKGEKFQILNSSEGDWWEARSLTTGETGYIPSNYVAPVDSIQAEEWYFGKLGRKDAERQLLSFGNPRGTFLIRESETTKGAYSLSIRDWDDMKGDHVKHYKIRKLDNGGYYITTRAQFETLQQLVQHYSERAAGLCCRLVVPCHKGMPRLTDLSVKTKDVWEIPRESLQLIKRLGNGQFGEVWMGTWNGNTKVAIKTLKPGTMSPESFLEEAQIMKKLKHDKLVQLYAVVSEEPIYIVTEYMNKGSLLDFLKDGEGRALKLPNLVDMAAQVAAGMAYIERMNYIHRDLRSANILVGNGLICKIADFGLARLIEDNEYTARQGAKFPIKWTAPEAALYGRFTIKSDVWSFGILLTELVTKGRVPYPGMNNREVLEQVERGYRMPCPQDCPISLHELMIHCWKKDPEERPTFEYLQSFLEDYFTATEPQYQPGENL
Data set [12] addresses Serine/threonine-protein kinase PAK 1 (Homo sapiens) (UniProt Q13153). Briefly: Inhibition of recombinant human GST-tagged full length PAK1 expressed in baculovirus expression system using Ser/Thr 19 as substrate at 0.1 uM incubated for 60 mins by Z'-lyte assay relative to control.

From ChEMBL document CHEMBL4665643 (Bioorg Med Chem Lett, 2019) come the findings set out here.

High affinity nerve growth factor receptor (Homo sapiens), sequence (P04629 33-796 limits assumed): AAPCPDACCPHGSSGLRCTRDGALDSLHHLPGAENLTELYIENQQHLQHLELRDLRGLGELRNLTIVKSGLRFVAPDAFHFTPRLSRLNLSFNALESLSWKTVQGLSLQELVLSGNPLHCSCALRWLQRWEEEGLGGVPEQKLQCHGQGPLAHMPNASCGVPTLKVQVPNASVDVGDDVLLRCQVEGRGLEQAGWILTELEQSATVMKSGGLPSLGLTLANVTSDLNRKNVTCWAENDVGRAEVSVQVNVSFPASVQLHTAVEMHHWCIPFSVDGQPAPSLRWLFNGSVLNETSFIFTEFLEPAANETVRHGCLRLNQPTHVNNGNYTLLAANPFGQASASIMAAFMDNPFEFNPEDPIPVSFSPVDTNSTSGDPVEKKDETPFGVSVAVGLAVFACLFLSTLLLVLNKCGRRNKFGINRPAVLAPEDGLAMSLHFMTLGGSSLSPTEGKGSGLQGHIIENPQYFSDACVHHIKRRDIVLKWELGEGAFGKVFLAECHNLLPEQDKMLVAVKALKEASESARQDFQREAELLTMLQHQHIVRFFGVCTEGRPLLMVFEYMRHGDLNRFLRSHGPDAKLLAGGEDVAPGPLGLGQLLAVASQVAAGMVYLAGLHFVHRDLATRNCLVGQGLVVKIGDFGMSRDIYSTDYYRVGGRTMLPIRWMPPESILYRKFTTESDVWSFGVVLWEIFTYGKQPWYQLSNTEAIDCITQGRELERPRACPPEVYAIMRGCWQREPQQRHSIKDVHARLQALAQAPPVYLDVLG
Serine/threonine-protein kinase PAK 1 (Homo sapiens), sequence (Q13153 whole entry): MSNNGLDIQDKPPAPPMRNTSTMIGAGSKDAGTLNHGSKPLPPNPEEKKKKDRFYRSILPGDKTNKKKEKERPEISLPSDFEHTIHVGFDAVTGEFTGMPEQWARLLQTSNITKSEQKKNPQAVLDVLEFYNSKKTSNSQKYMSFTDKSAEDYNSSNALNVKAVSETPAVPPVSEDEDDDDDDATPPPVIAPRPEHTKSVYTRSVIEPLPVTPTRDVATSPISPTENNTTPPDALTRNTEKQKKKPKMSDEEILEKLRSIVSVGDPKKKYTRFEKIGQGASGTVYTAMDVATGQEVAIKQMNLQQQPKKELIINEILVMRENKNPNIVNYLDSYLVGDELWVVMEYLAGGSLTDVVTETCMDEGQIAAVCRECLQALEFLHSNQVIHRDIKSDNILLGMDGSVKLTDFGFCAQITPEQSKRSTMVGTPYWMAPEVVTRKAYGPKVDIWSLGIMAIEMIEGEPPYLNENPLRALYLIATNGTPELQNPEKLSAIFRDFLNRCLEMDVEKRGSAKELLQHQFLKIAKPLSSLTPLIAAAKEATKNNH

As to `Cn1cc(NC(=O)c2cnn3cccnc23)c(-c2cc(Cl)ccc2OC(F)F)n1`, the inhibition at 1 h, 0.1 µM at LRRK2 was determined as 61%. The inhibition in data set [1] was 5%; in [2], -4%; in [3], 6%; in [4] it was 11%; in [6] it was 10%; in [7], -1%. Also, the inhibition in data set [8] was 4%; in [9], 11%; in data set [10], 44%; in [11] it was 89%; in data set [12], 2%. Further, in [5], the CLint scaled at 1 µM turned out to be 15 mL/min/kg.
With `O=C(Nc1c[nH]nc1-c1cc2ccccc2cc1OC(F)F)c1cnn2cccnc12`, on LRRK2, the inhibition at 1 h, 0.1 µM was found to be 31%. Also, the inhibition was 3% in [1]; 5% in data set [2]; 4% in data set [3]; -5% in data set [4]; 11% in data set [6]; -6% in [7]. The inhibition in data set [8] was 5%; in data set [9] it was 1%; in data set [10] it was 23%; in data set [11], 78%; in [12], -7%. In addition, the CLint scaled at 1 µM in data set [5] was determined as 17 mL/min/kg.
With `O=C(Nc1c[nH]nc1-c1cc(Cl)ccc1OC(F)F)c1cnn2cccnc12`, the inhibition at 1 h, 0.1 µM at LRRK2 is 87%. The inhibition in [1] is 8%; in data set [2], 5%; in data set [3] it was 4%; in data set [4], 11%; in data set [6], 32%; in data set [7], 1%. Also, the inhibition in data set [8] was -1%; in data set [9], 12%; in data set [10], 59%; in data set [11], 95%; in data set [12], 12%. The CLint scaled at 1 µM in [5] amounted to 14 mL/min/kg.

For orientation: inhibition means the drop in the measured response relative to a control, in per cent.
